Columns and labels:
Experiment in all cases: Kinobeads competition binding, HeLa Placenta lysate mix
Design in all cases: capturing and identification of kinases from mixed HeLa placenta lysates; endogenous in cells; host or cells: mixed lysate of HeLa cells and placenta tissue
Details in all cases: 10 μM free compound
MLK3 = MLK3 (Homo sapiens, UniProt Q16584)
Method: (§1) To one aliquot of cell lysate 10 μM of the free compound (FIG. 3, CZC31326) was added and allowed to bind to proteins in the lysate. Then the affinity matrix with the immobilized compound was added to capture proteins that were not interacting with the previously added free compound. Beads were separated from the lysate and bead bound proteins were eluted in SDS sample buffer and subsequently separated by SDS-Polyacrylamide gel electrophoresis (FIG. 10). Suitable gel bands were cut out and subjected to in-gel proteolytic digestion with trypsin. The second lysate aliquot was processed identically, however no free compound was added (DMSO solvent control). Peptides originating from samples 1 and 2 were labeled with iTRAQ reagents (iTRAQ 114 and iTRAQ 117) and the combined samples were analyzed with a nano-flow liquid chromatography system coupled online to a tandem mass spectrometer (LC-MS/MS) experiment followed by iTRAQ reporter ion quantification in the MS/MS spectra as described in Example 2.

GCK = biological target: T1, GCK (Homo sapiens, UniProt Q12851)
T1 sequence (Q12851 1-820): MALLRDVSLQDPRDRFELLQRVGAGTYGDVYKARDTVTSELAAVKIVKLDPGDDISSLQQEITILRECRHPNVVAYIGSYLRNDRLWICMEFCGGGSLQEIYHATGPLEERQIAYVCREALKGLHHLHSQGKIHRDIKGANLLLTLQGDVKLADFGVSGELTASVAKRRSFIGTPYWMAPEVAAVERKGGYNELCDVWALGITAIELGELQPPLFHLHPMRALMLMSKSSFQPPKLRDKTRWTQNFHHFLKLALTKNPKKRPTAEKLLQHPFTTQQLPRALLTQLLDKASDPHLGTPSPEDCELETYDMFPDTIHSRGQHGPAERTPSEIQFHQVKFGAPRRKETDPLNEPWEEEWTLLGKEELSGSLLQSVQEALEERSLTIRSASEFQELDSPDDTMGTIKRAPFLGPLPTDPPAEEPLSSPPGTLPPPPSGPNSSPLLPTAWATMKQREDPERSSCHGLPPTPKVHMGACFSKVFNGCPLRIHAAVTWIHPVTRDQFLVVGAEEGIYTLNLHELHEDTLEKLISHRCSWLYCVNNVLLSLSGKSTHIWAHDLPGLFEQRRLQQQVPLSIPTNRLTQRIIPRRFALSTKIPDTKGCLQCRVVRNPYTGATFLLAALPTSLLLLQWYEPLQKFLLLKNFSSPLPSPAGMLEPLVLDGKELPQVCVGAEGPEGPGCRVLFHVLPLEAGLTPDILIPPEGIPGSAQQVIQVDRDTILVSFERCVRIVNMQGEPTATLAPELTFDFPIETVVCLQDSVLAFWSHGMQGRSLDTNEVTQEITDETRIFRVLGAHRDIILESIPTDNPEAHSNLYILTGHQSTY
Method: as §1

GAK = biological target: T2, GAK (Homo sapiens, UniProt O14976)
T2 sequence (O14976 1-1311): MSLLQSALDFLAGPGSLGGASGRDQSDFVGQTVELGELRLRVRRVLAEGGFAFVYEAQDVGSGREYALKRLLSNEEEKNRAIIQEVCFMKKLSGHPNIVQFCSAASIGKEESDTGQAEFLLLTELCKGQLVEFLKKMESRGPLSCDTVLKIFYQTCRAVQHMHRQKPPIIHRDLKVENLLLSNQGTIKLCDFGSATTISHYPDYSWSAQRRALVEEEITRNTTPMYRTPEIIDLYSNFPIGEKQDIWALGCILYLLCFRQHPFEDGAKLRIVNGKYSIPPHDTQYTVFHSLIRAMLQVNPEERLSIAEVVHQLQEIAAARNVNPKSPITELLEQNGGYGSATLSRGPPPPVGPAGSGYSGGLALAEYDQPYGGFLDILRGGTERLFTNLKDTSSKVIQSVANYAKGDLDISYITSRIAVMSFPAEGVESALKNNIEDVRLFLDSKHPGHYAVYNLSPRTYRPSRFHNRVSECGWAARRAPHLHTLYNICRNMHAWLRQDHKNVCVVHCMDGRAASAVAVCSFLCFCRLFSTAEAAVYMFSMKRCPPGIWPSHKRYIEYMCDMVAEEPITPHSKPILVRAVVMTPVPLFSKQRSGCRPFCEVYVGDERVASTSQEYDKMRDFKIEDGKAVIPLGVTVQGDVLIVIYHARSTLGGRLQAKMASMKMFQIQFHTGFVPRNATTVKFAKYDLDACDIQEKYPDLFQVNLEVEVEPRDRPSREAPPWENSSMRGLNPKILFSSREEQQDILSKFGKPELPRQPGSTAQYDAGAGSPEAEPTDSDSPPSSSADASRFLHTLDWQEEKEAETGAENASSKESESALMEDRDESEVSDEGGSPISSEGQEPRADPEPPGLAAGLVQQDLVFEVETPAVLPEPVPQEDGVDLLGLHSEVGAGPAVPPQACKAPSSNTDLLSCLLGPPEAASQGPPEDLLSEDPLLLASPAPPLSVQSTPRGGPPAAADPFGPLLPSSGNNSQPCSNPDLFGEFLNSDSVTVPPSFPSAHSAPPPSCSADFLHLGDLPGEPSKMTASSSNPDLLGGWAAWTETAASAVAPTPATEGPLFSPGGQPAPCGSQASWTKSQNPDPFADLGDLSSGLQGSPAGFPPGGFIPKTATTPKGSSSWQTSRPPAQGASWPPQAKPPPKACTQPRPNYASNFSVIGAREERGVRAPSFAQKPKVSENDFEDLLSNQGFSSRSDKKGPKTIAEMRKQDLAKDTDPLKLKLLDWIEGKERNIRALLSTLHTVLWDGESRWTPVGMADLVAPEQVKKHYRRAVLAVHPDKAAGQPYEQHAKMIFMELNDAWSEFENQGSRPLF
Method: as §1

Chain of MLK3 (Q16584 whole entry): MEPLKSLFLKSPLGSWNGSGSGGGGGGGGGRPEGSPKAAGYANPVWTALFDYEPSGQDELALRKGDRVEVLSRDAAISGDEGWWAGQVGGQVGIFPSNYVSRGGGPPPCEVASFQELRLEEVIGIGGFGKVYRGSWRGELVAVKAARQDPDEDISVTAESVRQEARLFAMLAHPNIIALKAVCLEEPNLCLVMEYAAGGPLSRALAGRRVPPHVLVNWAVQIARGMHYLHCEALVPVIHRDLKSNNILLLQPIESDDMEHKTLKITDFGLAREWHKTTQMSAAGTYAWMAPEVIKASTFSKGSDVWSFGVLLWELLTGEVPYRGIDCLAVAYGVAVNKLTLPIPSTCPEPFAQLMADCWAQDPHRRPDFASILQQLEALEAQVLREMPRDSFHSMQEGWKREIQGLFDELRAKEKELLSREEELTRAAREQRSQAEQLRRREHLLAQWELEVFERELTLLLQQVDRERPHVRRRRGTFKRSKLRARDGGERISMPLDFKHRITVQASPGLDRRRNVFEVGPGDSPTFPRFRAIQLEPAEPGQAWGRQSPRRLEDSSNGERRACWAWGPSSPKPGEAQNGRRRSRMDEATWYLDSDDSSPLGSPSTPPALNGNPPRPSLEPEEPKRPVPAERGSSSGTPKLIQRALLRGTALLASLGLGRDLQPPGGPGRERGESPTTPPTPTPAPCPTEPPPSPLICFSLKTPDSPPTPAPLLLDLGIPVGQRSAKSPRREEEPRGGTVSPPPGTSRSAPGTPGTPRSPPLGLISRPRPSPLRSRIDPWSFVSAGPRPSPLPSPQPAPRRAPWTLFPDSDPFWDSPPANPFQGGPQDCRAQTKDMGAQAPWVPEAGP

- Competition % (MLK3): 93.8%
- inhibition at 10 µM (GCK): 93.8%
- inhibition at 10 µM (GAK): 93.6%
SMILES: CS(=O)(=O)Nc1ccccc1Nc1nc(Nc2cccc(OCCN)c2)ncc1Cl [CZC31326, N-(2-(2-(3-(2-aminoethoxy)phenylamino)-5-chloropyrimidin-4-ylamino)phenyl)methanesulfonamide]
